Counter-ions that a name gives are not always drawn.

We go through 31 compounds from patent US10526287B2, “LSD1 inhibitors and uses thereof” (Constellation Pharmaceuticals, Inc., priority 2015, dated 2020).

The first test addresses LSD1 (Homo sapiens, UniProt O60341). Description: Biochemical assay for LSD1 activity (LSD1 demethylase TR-FRET). To be noted: Table 5; biotinylated H3K4me1 peptide, 50 minutes at room temperature, TR-FRET; read-out: LSD1_Pep_TR-FRET_1.0 (IC50 T50).
As to `CC1(N)CC1/C=C/c1ccccc1` (stereo not shown) [Compound 112, 1-methyl-2-((E)-styryl)cyclopropanamine], the IC50 is 100 to 1000 nM.

As to `O=C(O)c1ccc(CN2CCC(CNC3CC3/C=C/c3ccccc3)CC2)cc1` (stereo not shown) [Compound 101, (E)-4-((4-(((2-styrylcyclopropypamino)methyl)piperidin-1-yl)methyl)benzoic Acid Dihydrochloride], the IC50 was 100 to 1000 nM.

Turning to `O=C(O)CCN1CCC(CNC2CC2/C=C/c2ccccc2)CC1` (stereo not shown) [Compound 105, (E)-3-(4-(((2-styrylcyclopropyl)amino)methyl)piperidin-1-yl)propanoic acid], the IC50 fell in the range of 100 to 1000 nM.

The test is the same for the next values; noted with them: Table 6; biotinylated H3K4me1 peptide, 50 minutes at room temperature, TR-FRET; read-out: LSD1_Pep_TR-FRET_1.0 (IC50 T50).
Take `C/C(=C\c1ccccc1)[C@@H]1C[C@H]1N[C@H]1CC[C@H](NCCCC(=O)O)CC1` (racemic) [Compound 164, 4-(((trans)-4-(((trans)-2-((E)-1-phenylprop-1-en-2-yl)cyclopropyl)amino)cyclohexyl)amino)butanoic Acid bis(trifluoroacetic Acid) Salt]: the IC50 is < 100 nM.

With `COc1ccc(/C=C(\C)[C@@H]2C[C@H]2N)cc1` [compound 130, 2,2,2-trifluoroacetate], the half-maximal inhibitory concentration (IC50) was in the range of 1000 to 10000 nM.

With `CC(C)/C(=C\c1ccccc1)[C@@H]1C[C@H]1NC1CCNCC1` (racemic) [Compound 277, N-((trans)-2-((E)-3-methyl-1-phenylbut-1-en-2-yl)cyclopropyl)piperidin-4-amine Dihydrochloride], the IC50 was < 100 nM.

For the compound `C/C(=C\c1ccccc1)[C@@H]1C[C@H]1N[C@H]1CC[C@H](NCC(C)(C)C(=O)O)CC1` (single isomer, unassigned) [Compound 148, 2,2-dimethyl-3-(((trans)-4-(((trans)-2-((E)-1-phenylprop-1-en-2-yl)cyclopropyl)amino)cyclohexyl)amino)propanoic acid bis(trifluoroacetic acid) salt], the IC50 was < 100 nM.

As to `CC/C(=C\c1ccccc1)[C@@H]1C[C@H]1NC1CCC(NCc2ccc(C(=O)O)nc2)CC1` (mixture of isomers) [Compound 224, 5-((((trans)-4-(((trans)-2-((E)-1-phenylbut-1-en-2-yl)cyclopropyl)amino)cyclohexyl)amino)methyl)picolinic acid], the IC50 is < 100 nM.

With `COCC/C(=C\c1ccccc1)[C@@H]1C[C@H]1NC1CCC(NCc2ccc(C(=O)O)nc2)CC1` (mixture of isomers) [Compound 185, 5-((((trans)-4-(((trans)-2-((E)-4-methoxy-1-phenylbut-1-en-2-yl)cyclopropyl)amino)cyclohexyl)amino)methyl)picolinic Acid bis(trifluoroacetic Acid) Salt], the IC50 is < 100 nM.

As for `C/C(=C\c1ccccc1)[C@@H]1C[C@H]1N[C@H]1CC[C@H](NCCC(=O)N2CCCC2)CC1` (single isomer, unassigned) [Compound 146, 3-(((trans)-4-(((trans)-2-((E)-1-phenylprop-1-en-2-yl)cyclopropyl)amino)cyclohexyl)amino)-1-(pyrrolidin-1-yl)propan-1-one bis(trifluoroacetic acid) salt], the IC50 was < 100 nM.

Turning to `CC/C(=C\c1ccccc1)[C@@H]1C[C@H]1N[C@H]1CC[C@H](NCC(C)(C)C#N)CC1` (single isomer, unassigned) [Compound 157, 2,2-dimethyl-3-(((trans)-4-(((trans)-2-((E)-1-phenylbut-1-en-2-yl)cyclopropyl)amino)cyclohexyl)amino)propanenitrile bis(trifluoroacetic acid salt)], the 50% inhibitory concentration (IC50) was < 100 nM.

For `COCCNC1CCC(N[C@@H]2C[C@H]2/C(C)=C/c2ccccc2)CC1` (single isomer, unassigned) [Compound 143, (trans)-N1-(2-methoxyethyl)-N4-((trans)-2-((E)-1-phenylprop-1-en-2-yl)cyclopropyl)cyclohexane-1,4-diamine bis(trifluoroacetic acid salt)], the IC50 was < 100 nM.

Consider `CC/C(=C\c1ccccc1)[C@@H]1C[C@H]1N[C@H]1CC[C@@H](N(C)CCC(=O)O)CC1` (racemic) [Compound 213, 3-(methyl((cis)-4-(((trans)-2-((E)-1-phenylbut-1-en-2-yl)cyclopropyl)amino)cyclohexyl)amino)propanoic Acid Dihydrochloride], for which the IC50 lay within 100 to 1000 nM.

Turning to `C/C(=C\c1ccccc1)[C@@H]1C[C@H]1NC1CCN(CCNS(C)(=O)=O)CC1` (racemic) [Compound 205, N-(2-(4-(((trans)-2-(E)-1-phenylprop-1-en-2-yl)cyclopropyl)amino)piperidin-1-yl)ethyl)methanesulfonamide Dihydrochloride], the IC50 was < 100 nM.

For `CC(=Cc1ccc(C#N)cc1)C1CC1N[C@H]1CC[C@@H](N)CC1` (relative stereo) [Compound 131, 4-(2-(2-(((cis)-4-aminocyclohexyl)amino)cyclopropyl)prop-1-en-1-yl)benzonitrile Dihydrochloride], the IC50 is > 10000 nM.

Take `CC/C(=C\c1ccccc1)[C@@H]1C[C@H]1N[C@H]1CC[C@H](NCC(=O)O)CC1` (racemic) [Compound 182, 2-(((trans)-4-(((trans)-2-((E)-1-phenylbut-1-en-2-yl)cyclopropyl)amino)cyclohexyl)amino)acetic acid]: the IC50 is < 100 nM.

With `CC/C(=C\c1ccccc1)[C@@H]1C[C@H]1NC1CCC(NCc2cnn(CC(=O)O)c2)CC1` (mixture of isomers) [Compound 210, 2-(4-(((4-(((trans)-2-((E)-1-phenylbut-1-en-2-yl)cyclopropyl)amino)cyclohexyl)amino)methyl)-1H-pyrazol-1-yl)acetic Acid Dihydrochloride], the IC50 lay within 100 to 1000 nM.

For the compound `C/C(=C\c1ccc(-c2cnn(C)c2)cc1)[C@@H]1C[C@H]1NC1CCNCC1` (racemic) [Compound 175], the IC50 was < 100 nM.

As to `CC/C(=C\c1ccccc1)[C@@H]1C[C@H]1N[C@H]1CC[C@H](NCc2c(OC)cc(C)[nH]c2=O)CC1` (single isomer, unassigned) [Compound 160, 4-methoxy-6-methyl-3-((((trans)-4-(((trans)-2-((E)-1-phenylbut-1-en-2-yl)cyclopropyl)amino)cyclohexyl)amino)methyl)pyridin-2(1H)-one bis(trifluoroacetic acid salt)], the IC50 was < 100 nM.

Take `CC/C(=C\c1ccccc1)[C@@H]1C[C@H]1N[C@H]1CC[C@@H](NCC(C)(C)C#N)CC1` (single isomer, unassigned) [Compound 158, 2.2-dimethyl-3-(((cis)-4-(((trans)-2-((E)-1-phenylbut-1-en-2-yl)cyclopropyl)amino)cyclohexyl)amino)propanenitrile bis(trifluoroacetic acid salt)]: the IC50 is < 100 nM.

For `CC/C(=C\c1ccccc1)[C@@H]1C[C@H]1N[C@H]1CC[C@H](NCc2ccc(C(=O)O)cc2)CC1` (racemic) [Compound 218, 4-((((trans)-4-(((trans)-2-((E)-1-phenylbut-1-en-2-yl)cyclopropyl)amino)cyclohexyl)amino)methyl)benzoic Acid Dihydrochloride], the IC50 is < 100 nM.

Take `C/C(=C\c1ccccc1)[C@@H]1C[C@H]1N[C@H]1CC[C@@H](NCCC#N)CC1` (single isomer, unassigned) [Compound 156, 3-(((cis)-4-(((trans)-2-((E)-1-phenylprop-1-en-2-yl)cyclopropyl)amino)cyclohexyl)amino)propanenitrile bis(trifluoroacetic acid) salt]: the IC50 was < 100 nM.

`C/C(=C\c1ccccc1)[C@@H]1C[C@H]1NC1CCN(Cc2ccc[nH]c2=O)CC1` (racemic) [Compound 134, 3-((4-(((trans)-2-((E)-1-phenylprop-1-en-2-yl)cyclopropyl)amino)piperidin-1-yl)methyl)pyridin-2(1H)-one bis(2,2,2-trifluoroacetate)]: the IC50 is < 100 nM.

As for `C/C(=C\c1ccccc1)[C@@H]1C[C@H]1NC1CCN(CC(N)=O)CC1` (racemic) [Compound 196, 2-(4-(((trans)-2-((E)-1-phenylprop-1-en-2-yl)cyclopropyl)amino)piperidin-1-yl)acetamide Dihydrochloride], the IC50 was < 100 nM.

Staying with this test, now noted: Table 7; biotinylated H3K4me1 peptide, 50 minutes at room temperature, TR-FRET; read-out: LSD1_Pep_TR-FRET_1.0 (IC50 T50).
As for `CC/C(=C\c1ccccc1)[C@@H]1C[C@H]1NC1CC2(C1)CN(CCC(=O)O)C2` (single isomer, unassigned) [Compound 266, 3-(6-(((1R,2S or 1S,2R)-2-((E)-1-phenylbut-1-en-2-yl)cyclopropyl)amino)-2-azaspiro[3.3]heptan-2-yl)propanoic Acid (Single Stereoisomer)], the IC50 was < 100 nM.

`CC/C(=C\c1ccccc1)[C@@H]1C[C@H]1NC[C@H]1C[C@H](NCc2ccc(C(=O)O)cc2)C1` (racemic) [Compound 236]: the IC50 is < 100 nM.

For `CC/C(=C\c1ccccc1)[C@@H]1C[C@H]1NCc1cnc(N)nc1` (racemic) [Compound 246, 5-((((trans)-2-((E)-1-phenylbut-1-en-2-yl)cyclopropyl)amino)methyl)pyrimidin-2-amine Hydrochloride], the IC50 was < 100 nM.

On to `CC/C(=C\c1ccccc1)[C@@H]1C[C@H]1NCCC1CN(Cc2ccc(C(=O)O)cc2)C1` (racemic) [Compound 241], for which the IC50 was < 100 nM.

Turning to `CC/C(=C\c1ccccc1)[C@@H]1C[C@H]1NCc1ccccc1CN` (racemic) [Compound 247, (trans)-N-(2-(aminomethyl)benzyl)-2-((E)-1-phenylbut-1-en-2-yl)cyclopropan-1-amine], the IC50 is < 100 nM.

For the compound `CC/C(=C\c1ccccc1)[C@@H]1C[C@H]1NC1CC2(C1)CN(Cc1ccc(C(=O)O)nc1)C2` (racemic) [Compound 231], the concentration for half-maximal inhibition (IC50) is < 100 nM.

On to `CC/C(=C\c1ccccc1)[C@@H]1C[C@H]1N[C@H]1CC[C@H](NCc2ccc(C(=O)O)nc2)CC1` (single isomer, unassigned) [Compound 260, 5-((((trans)-4-(((1R,2S or 1S,2R)-2-((E)-1-phenylbut-1-en-2-yl)cyclopropyl)amino)cyclohexyl)amino)methyl)picolinic acid bis trifluoroacetate], for which the IC50 is < 100 nM.
